{
  "source": "patent US20050196751A1",
  "about": "“Adenoviral vector-mediated delivery of modified steroid hormone receptors and related products and methods” (priority 1998, published 2005)",
  "tested_on": "C57BL/6 mice",
  "test": "Serum hGH in adenoviral infected mice after RU486 (radio-immunoassay)",
  "type": "in vivo, mouse",
  "protocol": "RU486 (250 μg/kg) was administered every second day after infection for a period of two weeks as indicated by arrows. Mice were bled at different time points and serum hGH was analyzed by radio-immunoassay. Mice 1 and 2 received intraperitoneal injections (IP) of RU486; Mouse 3 (−RU486) received sesame oil. hGH serum levels are shown as μg/ml.\nMice infected for two weeks with the regulatable adenoviral construct hGHGLp65 were induced with […] RU486 as indicated by an arrow. 3, 6, 12, 24, 48, 72, 120 and 192 hours after RU486 administration blood was drawn from the mice, and hGH was measured in the serum by a radio-immunoassay. hGH serum levels of individual mice are shown in μg/ml.\nMice infected with hGH-GLp65 or hGH-H-GLp65 adenoviral vectors were induced 3 times with 250 μg/kg RU486 over a time period of 50 Days. hGH was measured prior to, 12 hours after, and 7 days after RU486 administration. […] Serum levels of hGH are shown in μg/ml.\nhGH analysis in adenoviral infected mice. […] Serum hGH levels were detected using a radio-immunoassay. […]\nTo investigate the kinetics of the regulatory system, mice received a single RU486 administration two weeks after the initial infection and serum hGH levels were measured at different time intervals. […]",
  "data": [
    {"smiles": "CC#C[C@]1(O)CC[C@H]2[C@@H]3CCC4=CC(=O)CCC4=C3[C@@H](c3ccc(N(C)C)cc3)C[C@@]21C", "note": "[RU486, mifepristone]", "values": [
      {"measurement": "doses of RU486 needed for induction", "setting": "induction of transgene in the regulatory system", "result": "0.1 to 0.5", "unit": "mg/kg"},
      {"measurement": "hGH induction with oral versus I.P. RU486", "setting": "oral RU486 administration compared with intraperitoneal", "result": "comparable"}
    ]}
  ]
}
